“Also recorded” adds a separate entry of the source. Square brackets hold non-standard residues; d marks the D form. Ends that are not written are not given here. Nle = CCCC[C@H](N)C(=O)O; Nva = CCC[C@H](N)C(=O)O
Experiments:
PRAME425-433 peptide = assay: IFN-gamma ELISA of splenocytes after pCTLR2 prime and peptide boost; format: in vivo, HHD transgenic mice; settings: pCTLR2 prime, 2.5 μg peptide boost; versus native peptide boost; FIG. 29
splenocytes = assay: Ex vivo cytokine production (IFN-gamma ELISA) after boost with PRAME analogs; format: in vivo, HHD transgenic mice; settings: 10 μg/ml native peptide, 48 hours; FIG. 32
[1] = target: A0201 restricted MHC Class 1 molecules (Homo sapiens, UniProt P04439, D140Y/D185E/D98H/E176V/E277Q/G131W/G231S/I119V/I121R/I166T/I218V/N151K/N90K/P208A/P217A/Q86G/Q94H/R138H/R169H); assay: iTopia off-rate assay (T1/2); format: binding; settings: compared with the respective native peptide
Procedure: Avidin-coated microtiter plates containing class I monomer loaded with a so-called placeholder peptide were used to evaluate peptide binding, affinity and off-rate. […] Assay buffers, anti-MHC-FITC mAb and beta2-microglobulin and control peptides were also supplied with the kits.
The plates were then incubated on the allele-specific monomer plates at 37° C. The plates were measured at multiple time points (0, 0.5, 1, 1.5, 2, 4, 6 and 8 hrs) for relative fluorescence intensity. The time required for 50% of the peptide to dissociate from the MHC monomer is defined as the T1/2 value (hrs).
The binding and offrate (T1/2) was determined for six native epitopes and their analogs which were designed to enhance the immune response.

624.38 melanoma cells = assay: Ex vivo cytotoxicity against PRAME+ A2+ human tumor cells; format: in vivo; settings: splenocytes restimulated ex vivo with native PRAME peptide
Procedure: (§1) This was followed by two peptide boosts (2.5 μg) at day 28 and 31, with the analog L426Nva L433Nle.

[2] = system: PRAME425-433-specific T cells; assay: Tetramer/CD8 co-staining of PRAME425-433-specific T cells; format: in vivo, HHD transgenic mice; settings: versus boost with negative control peptide; FIG. 31
[3] = system: native peptide loaded splenocytes; assay: In vivo cytotoxicity against native PRAME peptide-loaded splenocytes (CFSE); set-up: species or system HHD transgenic mice; settings: pCTLR2 prime, peptide boost; FIGS. 30-31
[4] = system: T cell line specific for the native epitope PRAME425-433; assay: Cross-reactivity of PRAME425-433 analogs: IFN-gamma secretion from T cell line specific for native epitope; format: cell-based; settings: analog peptide at approximately 0.3 μM; normalized to native PRAME425-433
Procedure: The analogs listed in FIGS. 26-28 were tested for various properties such as improved affinity and stability of binding, cross-reactivity with the native epitope, and immunogenicity as follows in Examples 40-48. […] The observed affinities of the analogs are reported as % binding (compared to the positive control) and ED50, and stability of binding as half time of dissociation. Cross reactivity with the native epitope was assessed by using the analog peptides to stimulate IFN-gamma secretion from a T cell line specific for the native epitope, essentially as described in Example 6. The data shown in FIGS. 26-28 were generated by stimulating with analog peptide at approximately 0.3 μM. […] In some cases, the reported values are the average of two determinations.

HLA-A*0201 = HLA-A*0201 (Homo sapiens, UniProt P04439, D140Y/D185E/D98H/E176V/E277Q/G131W/G231S/I119V/I121R/I166T/I218V/L300P/L318F/N151K/N90K/P208A/P217A/Q86G/Q94H/R138H/R169H/T345S); assay: iTopia affinity assay (ED50); format: binding; settings: compared with the respective native peptide
Source text: Avidin-coated microtiter plates containing class I monomer loaded with a so-called placeholder peptide were used to evaluate peptide binding, affinity and off-rate. The monomer-coated plates were supplied as part of the iTopia Epitope Discovery System Kit (Beckman Coulter, Inc., San Diego, Calif., USA). Assay buffers, anti-MHC-FITC mAb and beta2-microglobulin and control peptides were also supplied with the kits.
Plates were read on the fluorometer. Sigmoidal dose response curves were generated using Prism software.

A2-624.28 control cells = assay: Ex vivo cytotoxicity against A2-negative control cells; format: in vivo; settings: same effector cells as for 624.38
Procedure: as §1

S{Nva}LQHLIG{Nle} (S[Nva]LQHLIG[Nle]) [Prame 425-433 (L426Nva, L433Nle)]
IFN-γ production in response to PRAME425-433 peptide (ELISA) (PRAME425-433 peptide): significant enhancement of IFN-γ production
ex vivo cytokine production (IFN-γ) by splenocytes (splenocytes): greater response
stability of binding (half-time of dissociation), in words [1]: Significant increase in the stability
cytotoxicity against 624.38 human tumor cells (624.38 melanoma cells): significant cytotoxicity
expansion of T cells specific against the native epitope (tetramer staining) [2]: significantly higher
in vivo cytotoxicity against native epitope, in words [3]: preserved induction of cytotoxicity; also recorded: capable of expanding the immunity against the native epitope
IFN-γ production (cross-reactivity), in words [4]: significant level of cross-recativity
binding affinity (ED50) / binding characteristics, in words (HLA-A*0201): similar, somewhat improved binding characteristics
cytotoxicity against A2-negative control cells (A2-624.28 control cells): no significant activity
